Where a name gives a salt, the structure may show the parent alone.
Experiments:
Format in all cases: physicochemical
[1] = Salt form optimization study: hygroscopicity / deliquescence of salts
Text: In another salt from optimization study for the dibasic drug molecule (+/−)-erythro-2-amino-3-hydroxy-3-pyridin-4-yl-1-pyrrolidin-1-yl-propan-1-one, the dihydrochloride was the first salt prepared and characterized. […] The following counterions were used: sulfuric acid, 1-hydroxy-2-naphthoic acid, methanesulfonic acid, naphthalene-2-sulfonic acid, benzenesulfonic acid, (L-) glutamic acid, malonic acid, citric acid, (−)-L-malic acid, lactic acid, ascorbic acid, and acetic acid. Of these the pursuance of mono-acetate, the naphthalene-2-sulfonate and the 1-hydroxy-2-naphthoate salts were recommended. […] The latter salt also represented a large counterion compared to the base and, especially at high doses, this was perceived as a definite disadvantage.

[2] = Differential Scanning Calorimetry (DSC) degradation
[3] = Dynamic Vapor Sorption (DVS)
[4] = TG-FTIR thermal decomposition
[5] = sample of FIG. 11 (crystalline salt)

## N[C@@H](C(=O)N1CCCC1)[C@@H](O)c1ccncc1 (racemic) [acetate salt, (+/−)-erythro-2-amino-3-hydroxy-3-pyridin-4-yl-1-pyrrolidin-1-yl-propan-1-one]
[1]
  relative humidity at which the salt deliquesced: 51 % RH

## N[C@@H](C(=O)N1CCCC1)[C@@H](O)c1ccncc1.O=C(O)C(O)C(O)C(=O)O [(−)-(2R,3S)-2-amino-3-hydroxy-3-pyridin-4-yl-1-pyrrolidin-1-yl-propan-1-one (L)-(+) tartrate]
[2]; DSC first scan, sample of FIG. 10 (crystalline salt)
  overlapping melting and degradation temperature: ~160 °C
[2]; DSC, amorphous sample, FIG. 16
  degradation temperature: above 118 °C
[3]; amorphous sample, FIG. 17
  hygroscopicity: very hygroscopic
[3]; amorphous sample, FIG. 17, visually confirmed
  deliquescence: deliquescent
[3]; [5]
  hygroscopicity: very hygroscopic
  relative humidity above which water uptake occurs: above 80 % r.h.
[3]; sample of FIG. 11 (crystalline salt), visually confirmed
  deliquescence: deliquescent
[4]; amorphous sample, FIG. 15
  degradation temperature: above 160 °C
[4]; sample of FIG. 9 (crystalline salt)
  decomposition temperature: above 160 °C

## N[C@@H](C(=O)N1CCCC1)[C@@H](O)c1ccncc1 (racemic) [dihydrochloride, (+/−)-erythro-2-amino-3-hydroxy-3-pyridin-4-yl-1-pyrrolidin-1-yl-propan-1-one]
[1]
  hygroscopicity: hygroscopic

Source: patent US9540328B2, “(−)-(2R,3S)-2-amino-3-hydroxy-3-pyridin-4-yl-1-pyrrolidin-1-yl-propan-1-one (L)-(+) tartrate salt, its method of production and use” (Allergan, Inc., priority 2013, dated 2017)
